What was measured:
rat pyloric muscle = assay: Electrical field stimulation (EFS)-mediated relaxation of isolated pyloric muscle; details: 25 μM Captodiamine; 10 min treatment, 10 μM-100 μM tested
Description: Inhibition of pyloric relaxation by administration of captodiamine was performed as described in Kashyap P., Micci M., Pasricha S., Pasricha P., The D2/D3 Agonist PD 128907 (R-(+)-trans-3,4a,10b-Tetrahydro-4-Propyl-2H,5H-[1]Benzopyrano[4,3-b]-1,4-Oxazin-9-ol) Inhibits Stimulated Pyloric Relaxation and Spontaneous Gastric Emptying, 2007, Digestive Diseases and Sciences.
Male Wistar rats were killed by cervical dislocation and decapitation. The stomach was removed and placed in oxygenated Krebs buffer (118 mM NaCl, 4.7 mM KCl, 1.2 mM KH2PO4, 1.2 mM MgSO4, 4.2 mM NaHCO3, 2 mM CaCl2, 10 mM glucose, 200 μM sulphinpyrazone and 10 mM Hepes, pH 7.4). […] The tissue was cut longitudinally along the mesenteric border and trimmed to 2 mm in width. At one end, the tissue was mounted onto an L-shaped electrode and placed into a 25 ml chamber containing Krebs buffer, maintained at 37° C. and continuously bubbled with 95% O2/5% CO2. The other end of the tissue was attached to an isometric force transducer using string sutured to tissue. Tension was monitored, recorded and analyzed by a digital recording device (PowerLab and Chart 5, ADInstruments). […] Spontaneous contraction of the pyloric strips were observed and recorded following the equilibration phase. […] The weight of the tissue was measured at the end of each session. […]

Sigma 2 receptor = target: T1, Sigma 2 receptor (Homo sapiens, UniProt Q5BJF2); assay: Novascreen receptor affinity screen (competition with reference ligand), Sigma 2; type: binding; details: 1 μM Captodiamine competing with a reference ligand; read-out: percent target inhibition, Sigma 2 receptor
T1 construct: Novascreen (contract screen)
T1 sequence (Q5BJF2 whole entry, species assumed): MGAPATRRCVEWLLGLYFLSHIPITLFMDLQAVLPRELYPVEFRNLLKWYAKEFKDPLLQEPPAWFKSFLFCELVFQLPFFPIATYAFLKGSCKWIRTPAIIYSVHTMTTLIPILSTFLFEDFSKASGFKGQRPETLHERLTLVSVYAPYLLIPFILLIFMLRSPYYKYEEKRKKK
Description: The Structure (FIG. 9A), receptor affinity (FIG. 9B), pharmacokinetics (FIG. 9C) and growth factor modulation (FIG. 9D) of Captodiamine are provided. Analysis of receptor affinities was performed by Novascreen™ and those displacing >20% of the natural ligand are indicated by the filled boxes. Blood levels of Captodiamine were determined by GC mass spectroscopy. In separate samples taken from a cannulated jugular at increasing time intervals following a single intraperitoneal injection of tha drug (5 mg/kg). Growth factor analysis was performed using tissue homogenates and ELISA assays specific for each growth factor (Promega). Values were analysed using a Student t-test and those with a p value<0.05 were accepted as significant and are indicated with an asterisk.
The higher the target inhibition value, the greater the affinity Captodiamine has for this particular receptor as it displaces a greater proportion of the reference ligand. This assay is an automated high throughput assay performed on cell lines that express only one type of receptor and was carried out by Novascreen (www.novascreen.com). Receptor affinity is a good starting point for determining the mechanism of action for a particular compound.

C57B16 mice = assay: Open-field test; type: in vivo; details: 3 and 5 mg/kg i.p. once daily for 7 days; FIG. 3
Excerpt: The open field test is designed to measure behavioural responses such as locomotor activity, hyperactivity, and exploratory behaviors. Open field is also used as a measure of anxiety. Rats and mice tend to avoid brightly illuminated, novel, open spaces, so the open field environment acts as an anxiogenic stimulus and allows for measurement of anxiety-induced locomotor activity and exploratory behaviors. Like the elevated maze test described below, open field testing is a one trial test with little or no impact on the animal's subsequent behavior. The apparatus for the open field test was a square (100 cm by 100 cm) made of white Perspex. Each rat is placed in a corner of the field and its behavior recorded for five minutes. All activity is recorded by a video camera mounted above the open field and scored in real-time (or digitized and scored later) by the advanced motion-recognition software package Ethovision by Noldus, that detects and analyzes the movements of the rat or mouse. The total distance, average speed, rearing/elongation behavior, and time spent in various parts of the field (such as, for example, the border areas vs. the open, middle area) is measured and analysed. Testing is carried out in a temperature, noise and light controlled room.
The Experimental protocol employed in the behavioural evaluation of Captodiamine is outlined in FIG. 7. […]

Compound: CCCCSc1ccc(C(SCCN(C)C)c2ccccc2)cc1 (stereo not shown) [Captodiamine, 2-[(4-butylsulfanylphenyl)-phenyl-methyl]sulfanyl-N,N-dimethyl-ethanamin]
- effect on EFS-mediated relaxation of the rat pyloric muscle (rat pyloric muscle): attenuation of the EFS-mediatated relaxation
- inhibition at 1 µM (Sigma 2 receptor): > 20%
- basal locomotion in the open-field paradigm (C57B16 mice): no influence on basal locomotion
- time spent in the centre of the open-field arena (C57B16 mice): significantly more time in the centre

Reference: patent US8461389B2, “Psycho-pharmaceuticals” (University College Dublin, National University of Ireland, …, priority 2008, dated 2013)
